Measurements taken from patent US10905120B2, “ABA receptor agonists that modulate transpiration” (The Regents of the University of California, priority 2016, dated 2021).
≈ marks a conversion by molar mass, not a printed value. Like-named read-outs stand apart in the source and are kept apart here.

Key:
PYR1 = target: T1, PYR1 (Arabidopsis thaliana, UniProt O49686); assay: PP2C inhibition assay, recombinant PYR1 receptor; assay type: biochemical
T1 sequence (O49686 1-191): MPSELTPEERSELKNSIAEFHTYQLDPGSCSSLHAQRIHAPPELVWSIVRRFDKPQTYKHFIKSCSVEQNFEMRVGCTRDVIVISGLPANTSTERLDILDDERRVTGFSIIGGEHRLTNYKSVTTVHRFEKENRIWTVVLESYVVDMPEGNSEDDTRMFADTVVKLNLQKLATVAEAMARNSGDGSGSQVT
T1 sequence (Q9CAJ0 23-511 partner): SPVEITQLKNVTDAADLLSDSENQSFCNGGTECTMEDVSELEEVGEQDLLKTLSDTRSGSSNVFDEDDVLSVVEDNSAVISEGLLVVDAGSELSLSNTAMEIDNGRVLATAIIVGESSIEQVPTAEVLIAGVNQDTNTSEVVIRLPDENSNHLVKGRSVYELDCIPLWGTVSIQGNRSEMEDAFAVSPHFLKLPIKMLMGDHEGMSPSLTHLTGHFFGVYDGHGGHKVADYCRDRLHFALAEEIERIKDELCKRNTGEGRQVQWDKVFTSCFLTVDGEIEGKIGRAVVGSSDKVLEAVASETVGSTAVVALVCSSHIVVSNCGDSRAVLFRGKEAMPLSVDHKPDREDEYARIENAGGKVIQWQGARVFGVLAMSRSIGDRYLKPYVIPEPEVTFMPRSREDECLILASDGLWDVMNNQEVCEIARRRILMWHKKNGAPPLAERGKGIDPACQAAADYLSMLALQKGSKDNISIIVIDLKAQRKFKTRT
Description: (§1) Reactions were started by adding 40 μL of a reaction solution containing 25 mM 4-nitrophenyl phosphate in assay buffer, after which absorbance measurements were immediately collected using a 405 nm on Wallac plate reader. Reactions contained 100 nM PP2C and 200 nM PYR/PYL proteins. […] The dose response data was fitted to a log (inhibitor) vs response-(variable slope) model using non-linear regression to infer the IC50 values using Graph Pad Prism 6.0.

PYL2 = target: T2, PYL2 (Arabidopsis thaliana, UniProt O80992); assay: PP2C inhibition assay, recombinant PYL2 receptor; assay type: biochemical
T2 sequence (O80992 1-190): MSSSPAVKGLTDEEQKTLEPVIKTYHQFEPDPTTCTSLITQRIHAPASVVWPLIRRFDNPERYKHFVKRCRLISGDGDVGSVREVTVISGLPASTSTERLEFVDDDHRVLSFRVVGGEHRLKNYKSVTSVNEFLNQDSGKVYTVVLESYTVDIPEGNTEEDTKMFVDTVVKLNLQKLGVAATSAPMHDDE
T2 sequence (Q9CAJ0 23-511 partner): T1 sequence (Q9CAJ0 23-511 partner)
Description: as §1

[1] = system: Arabidopsis thaliana seeds; assay: Germination assay; assay type: in vivo; conditions: Minimal Inhibitory Concentration, 3 d in darkness after 4 d stratification
Description: Germination experiments were performed with Arabidopsis thaliana seeds of wildtype Col0, Ler, or mutant backgrounds.
Seeds were sterilized by 30 sec incubation in 70% ethanol solution followed by a 5 min […] (while vigorously shaking) in a bleach-Tween solution. Afterwards, the sterilizing solutions were removed, and five washes were performed with sterile distilled water. To enhance complete removal of the solutions between the different steps, short centrifuge spins were performed. Finally, the now surface-sterilized seeds were re-suspended in an aseptic 0.1% agar solution to simplify distribution over multiwall plates. One drop of the solution contained on average 20-30 seeds.
In the multiwell plates, seeds were plated onto 0.7% agar Murashige amd Skoog (MS) plant growth medium containing one-half MS salts and 0.5% sucrose containing different concentrations of ABA, quinabactin, or the compound of interest. After 4 d of stratification at 4° C., the plates were transferred to a growth chamber in darkness and allowed to germinate for 3 d before germination was evaluated. The results are shown above in Table 1 and FIGS. 3A and 3B.

[2] = recombinant receptor 200 nM, PP2C 100 nM, 4-nitrophenyl phosphate substrate, absorbance 405 nm, read-out: IC50 PYR1
[3] = recombinant receptor 200 nM, PP2C 100 nM, 4-nitrophenyl phosphate substrate, absorbance 405 nm, read-out: IC50 PYL2

IC50 (PYR1; [2]) | IC50 (PYL2; [3]) | SMILES | MIC (μM) Germination [1] | IC50 (PYR1) | IC50 (PYL2)
0.246 ± 0.06 µM | 20 ± 1.08 µM | Cc1ccc(CS(=O)(=O)Nc2ccc(C#N)c(C)c2)cc1 [Ligand Q1, N-(4-Cyano-3-methylphenyl)-1-(4-methylphenyl)methanesulfonamide] | 10 µM (≈ 3 µg/mL) |  | 
 |  | Cc1ccc(CS(=O)(=O)Nc2ccc(C#N)c(Cl)c2)cc1 [Ligand Q2, N-(3-Chloro-4-cyanophenyl)-1-(4-methylphenyl)methanesulfonamide] | 25 µM (≈ 8.02 µg/mL) | 3.91 ± 0.122 µM | > 50 µM
 |  | Cc1ccc(CS(=O)(=O)Nc2ccc(C#N)c(C(F)(F)F)c2)cc1 [Ligand Q4, N-(4-Cyano-3-(trifluoromethyl)-phenyl)-1-(4-methylphenyl)methanesulfonamide] | 10 µM (≈ 3.54 µg/mL) | 0.258 ± 0.019 µM | 9.58 ± 0.102 µM
 |  | N#Cc1ccc(NS(=O)(=O)Cc2ccc([N+](=O)[O-])cc2)cc1C(F)(F)F [Ligand Q5, N-[4-Cyano-3-(trifluoromethyl)phenyl]-1-(4-nitrophenyl)methanesulfonamide] | >25 µM | 8.24 ± 0.52 µM | > 50 µM
 |  | N#Cc1ccc(NS(=O)(=O)Cc2ccc(N)cc2)cc1C(F)(F)F [Ligand Q6, 1-(4-Aminophenyl)-N-[4-cyano-3-(trifluoromethyl)phenyl]methanesulfonamide] | >25 µM | 3.4 ± 0.2 µM | > 50 µM
 |  | N#Cc1ccc(NS(=O)(=O)Cc2ccc(Br)cc2)cc1C(F)(F)F [Ligand Q7, 1-(4-Bromophenyl)-N-[4-cyano-3-(trifluoromethyl)phenyl]methanesulfonamide] | 10 µM (≈ 4.19 µg/mL) | 0.326 ± 0.0077 µM | 31.4 ± 3.4 µM
 |  | N#Cc1ccc(NS(=O)(=O)Cc2ccc(C(F)(F)F)cc2)cc1C(F)(F)F [Ligand Q9, N-[4-Cyano-3-(trifluoromethyl)phenyl]-1-[4-(trifluoromethyl)phenyl]methanesulfonamide] | 10 µM (≈ 4.08 µg/mL) | 3.4 ± 0.27 µM | > 50 µM
> 50 µM | > 50 µM | CC(=O)Nc1ccc(NS(=O)(=O)Cc2ccc(C)cc2)cc1C(F)(F)F [Ligand Q10, N-[4-{[(4-Methylbenzyl)sulfonyl]amino}-2-(trifluoromethyl)phenyl]acetamide] | >25 µM |  | 
> 50 µM | > 50 µM | CCCN(C(C)=O)c1ccc(NS(=O)(=O)Cc2ccc(C)cc2)cc1C(F)(F)F [Ligand Q11, N-[4-{[(4-Methylbenzyl)sulfonyl]amino}-2-(trifluoromethyl)phenyl]-N-propylacetamide] | >25 µM |  | 
1.1 ± 0.183 µM | > 50 µM | Cc1cc(NS(=O)(=O)Cc2ccc(C(F)(F)F)cc2)ccc1C#N [Ligand Q13, N-(4-Cyano-3-methylphenyl)-1-[4-(trifluoromethyl)phenyl]methanesulfonamide] | >25 µM |  | 
0.098 ± 0.007 µM | 2.58 ± 0.222 µM | Cc1ccc(CS(=O)(=O)Nc2cc(C)c(C#N)c(C)c2)cc1 [Ligand Q15, N-(4-Cyano-3,5-dimethylphenyl)-1-(4-methylphenyl)methanesulfonamide] | 10 µM (≈ 3.14 µg/mL) |  | 
0.13 ± 0.009 µM | 11.8 ± 1.12 µM | COc1cc(NS(=O)(=O)Cc2ccc(C)cc2)ccc1C#N [Ligand Q20, N-(4-Cyano-3-methoxyphenyl)-1-(4-methylphenyl)methanesulfonamide] | 5 µM (≈ 1.58 µg/mL) |  | 
0.197 ± 0.009 µM | 5.63 ± 0.8 µM | Cc1cc(NS(=O)(=O)Cc2ccc(Cl)cc2)cc(C)c1C#N [Ligand Q22, 1-(4-Chlorophenyl)-N-(4-cyano-3,5-dimethylphenyl)methanesulfonamide] | 10 µM (≈ 3.35 µg/mL) |  | 
0.203 ± 0.025 µM | 20.1 ± 1.46 µM | Cc1cc(NS(=O)(=O)Cc2ccc(C3CC3)cc2)cc(C)c1C#N [Ligand Q23, N-(4-Cyano-3,5-dimethylphenyl)-1-(4-cyclopropylphenyl)methanesulfonamide] | 10 µM (≈ 3.4 µg/mL) |  | 
 |  | Cc1cc(NS(=O)(=O)Cc2ccc(Br)cc2F)cc(C)c1C#N [Ligand Q24, 1-(4-Bromo-2-fluorophenyl)-N-(4-cyano-3,5-dimethylphenyl)methanesulfonamide] | 10 µM (≈ 3.97 µg/mL) | 0.188 ± 0.019 µM | 11.9 ± 1.47 µM
0.21 ± 0.036 µM | 1.66 ± 0.046 µM | Cc1ccc(CS(=O)(=O)Nc2cc(C)c(C#N)c(C3CC3)c2)cc1 [Ligand Q28, N-(4-Cyano-3-cyclopropyl-5-methylphenyl)-1-(4-methylphenyl) methanesulfonamide] | 10 µM (≈ 3.4 µg/mL) |  | 
 |  | CCCN1C(=O)CCc2cc(NS(=O)(=O)Cc3ccc(C)cc3)ccc21 [QB, Quinabactin, reference compound] | 3 µM (≈ 1.12 µg/mL) |  | 

SMILES | IC50 (PYR1; [2]) | IC50 (PYL2; [3]) | MIC (μM) Germination [1] | IC50 (PYR1) | IC50 (PYL2)
Cc1ccc(CS(=O)(=O)Nc2ccc(C#N)c(Br)c2)cc1 [Ligand Q3, N-(3-Bromo-4-cyanophenyl)-1-(4-methylphenyl)methanesulfonamide] | 2.5 ± 0.151 µM | > 50 µM | >25 µM |  | 
Cc1ccc(CS(=O)(=O)Nc2cc(C(F)(F)F)c(C#N)c(C(F)(F)F)c2)cc1 [Ligand Q14, N-(4-Cyano-3,5-(bistrifluoromethyl)phenyl)-1-(4-methylphenyl) methanesulfonamide] | > 50 µM | > 50 µM | >25 µM |  | 
Cc1ccc(CS(=O)(=O)Nc2cc(C(F)(F)F)c(C#N)cc2[N+](=O)[O-])cc1 [Ligand Q17, N-[4-Cyano-2-nitro-5-(trifluoromethyl)phenyl]-1-(4-methylphenyl) methanesulfonamide] | > 50 µM | > 50 µM | >25 µM |  | 
Cc1ccc(CS(=O)(=O)Nc2cc(C(F)(F)F)c(C#N)cc2N)cc1 [Ligand Q18, N-[2-Amino-4-cyano-5-(trifluoromethyl)phenyl]-1-(4-methylphenyl) methanesulfonamide] | > 50 µM | > 50 µM | >25 µM |  | 
Cc1ccc(CS(=O)(=O)Nc2cc(C)c(C#N)c(Br)c2)cc1 [Ligand Q25, N-(3-Bromo-4-cyano-5-methylphenyl)-1-(4-methylphenyl)methanesulfonamide] | 0.355 ± 0.034 µM | 16.7 ± 0.788 µM | 25 µM (≈ 9.48 µg/mL) |  | 
